In patent publication US20190345087A1, “BIO-STABLE C[…] AND METHODS FOR ENHANCING THEIR PHYSIOLOGICAL CONCENTRATION” (Teewinot Technologies Limited, priority 2016, published 2019):
Converted amounts (≈) assume the structure as drawn.

Tests used:
[1] = Chemical Stability Assay - Teorell-Stenhagen Buffer; format: physicochemical; settings: for Teorell-Stenhagen Buffer pH 3.5 t1/2 / Teorell-Stenhagen Buffer pH 4.5 t1/2 / Teorell-Stenhagen Buffer pH 5.5 t1/2 / Teorell-Stenhagen Buffer pH 6.5 t1/2 / Teorell-Stenhagen Buffer pH 7.5 t1/2 / Teorell-Stenhagen Buffer pH 8.5 t1/2: 10 μM, 0.5% DMSO, 20° C.
Description: (§1) CBD methyl ether and CBD difluoromethyl ether were synthesized using a synthetic protocol described above and the identities of the desired ether products were confirmed by nuclear magnetic resonance spectroscopy as well as HPLC-MS. CBD methyl and/or CBD difluoromethyl ethers were incubated in individual eppendorf tubes in the following mediums: (a) simulated gastric fluid (SGF) with and without pepsin; (b) microsomal extract; (c) S9 fraction (hepatic); (d) Plasma; (e) Teorell-Stenhagen Buffer at pH 3.5, 4.5, 5.5, 6.5, 7.5, and 8.5; and (f) simulated intestinal fluid (SIF) with and without pancreatin. Each incubation mixture contained up to 0.5% of an organic solvent. DMSO is the organic solvent when SGF and Teorell-Stenhagen Buffer was used and acetonitrile is the organic solvent for incubation mixtures in microsomal extract, S9 fraction, and plasma. The concentration of CBD methyl and/or CBD difluoromethyl ether is 10 μM for stability studies in SGF and Teorell-Stenhagen Buffer. However, the concentration of CBD methyl and/or CBD difluoromethyl ether is 1 μM for stability studies in microsomal extract, S9 fraction, and plasma.
[…] Aliquots were taken at fixed intervals of time, typically at 0, 5, 10, 15, 30, and 45 minutes, or at fixed intervals of 1 h, 1.5 h, 2 h, 4 h, 6 h, 8 h, 24 h, and 48 hours. At each interval of time, two aliquots of each sample were collected. Each aliquot was extracted with ethyl acetate. The ethyl acetate layer was evaporated using a stream of nitrogen gas and the resulting residue was dissolved in 1:1 mixture of 0.1% aqueous HOAc and acetonitrile and analyzed by reverse-phase HPLC-MS.

[2] = S9 Intrinsic Clearance Assay; format: in vitro ADME, Human
Description: as §1
(§2) Stability studies were performed by incubating CBD methyl ether and/or CBD difluoromethyl ether at 37 ° C. in the desired medium. Aliquots were taken at fixed intervals of time, typically at 0, 5, 10, 15, 30, and 45 minutes, or at fixed intervals of 1 h, 1.5 h, 2 h, 4 h, 6 h, 8 h, 24 h, and 48 hours. At each interval of time, two aliquots of each sample were collected. Each aliquot was extracted with ethyl acetate. The ethyl acetate layer was evaporated using a stream of nitrogen gas and the resulting residue was dissolved in 1:1 mixture of 0.1% aqueous HOAc and acetonitrile and analyzed by reverse-phase HPLC-MS.
The stability of CBD methyl ether and CBD difluoromethyl ether in the hepatic S9 fraction is illustrated in Table 3. Both the methyl and difluoromethyl ethers were reasonably stable in S9 fraction with half-lives for de-etherification being about 5 hours for the methyl ether and about 3 hours for the difluoromethyl ether.
Intrinsic clearance (CLint) is clearance of drug by the livers if the drug is not bound to serum proteins or dependent on blood flow for delivery to the livers. Intrinsic clearance (CLint) is influenced by the affinity of the drug for its metabolizing liver enzyme and the number of enzymes present. CLint is subject to saturation and governed by Michaelis-menten (non-linear) elimination kinetics. Intrinsic clearance can be constant at low concentration, but progressively decreases as enzyme sites become saturated. Drugs with a strong affinity for their metabolizing enzymes or for which there are a large number of enzymes would be more efficiently extracted by the liver and thus, have a high extraction ratio (EH).
The hepatic extraction ratio EH is a good measure of expected first-pass metabolic clearance from liver (typical first pass after oral administration). The hepatic extraction ratio (Eh) is represented as follows:
Hepatic clearance (CLH) is the volume of blood that is cleared of drug per unit time by the liver, and QH is the rate of blood flow to the liver.
The hepatic extraction ratio EH is particularly useful for separating compounds into low/medium/high metabolic stability categories. Unlike in vitro intrinsic microsomal clearance (CLint), EH is species-nonspecific, because in its calculation species differences like liver weight, body weight, liver blood flow, etc. are normalized out, so EH values can be directly compared across species.

[3] = Microsomal Intrinsic Clearance Assay; format: in vitro ADME, Human
Description: as §1, §2
In vitro intrinsic microsomal clearance studies were performed to understand the metabolic fate of CBD ethers, as well as to identify metabolites produced by the degradation of the inventive CBD ethers.
The liver is the most important site of drug metabolism in the body. Approximately 60% of marketed compounds are cleared by hepatic CYP-mediated metabolism. See Drug Aletab. Dispos., 27(11) (1999) 1350. Liver microsomes are a subcellular fraction of hepatocytes, and they contain membrane bound drug metabolizing enzymes, Microsomes can be used to determine the in vitro intrinsic clearance of a compound. The use of species-specific microsomes can be used to enable an understanding of interspecies differences in drug metabolism.

Plasma Stability Assay = format: in vitro ADME; settings: 1 μM, 37 ° C.
Description: as §1, with “The concentration of CBD methyl and/or CBD difluoromethyl ether is 10 μM for stability studies in SGF and Teorell-Stenhagen Buffer. However, the concentration of CBD methyl and/or CBD difluoromethyl ether is 1 μM for stability studies in microsomal extract, S9 fraction, and plasma.” left out
Stability studies were performed by incubating CBD methyl ether and/or CBD difluoromethyl ether at 37 ° C. in the desired medium. […] The ethyl acetate layer was evaporated using a stream of nitrogen gas and the resulting residue was dissolved in 1:1 mixture of 0.1% aqueous HOAc and acetonitrile and analyzed by reverse-phase HPLC-MS.
The methyl and difluoromethyl ethers of CBD were stable to degradation in plasma. The half-life of degradation as measured by LC-MS for both ethers was greater than 400 minutes.

Solubility Assay - PBS = format: physicochemical; settings: for solubility in phosphate buffered saline / Solubility (μM) in PBS 7.4: PBS pH 7.4; for Solubility (μM) in PBS 7.4 / Solubility (μM) in T-S 7.5: λ 280 nm; for Solubility (μM) in T-S 7.5: Teorell-Stenhagen buffer pH 7.5
[4] = Stability in simulated gastric fluid (SGF) with and without pepsin and simulated intestinal fluid (SIF) with and without pancreatin; settings: for SGF t1/2: SGF with pepsin; for SGF t1/2 / SGF No Pepsin t1/2: pH 1.2; for SGF t1/2 / SGF No Pepsin t1/2 / SIF t1/2 / SIF No Pancreatin t1/2: 10 μM, 0.5% DMSO, 37° C.; for SGF No Pepsin t1/2: SGF without pepsin; for SIF t1/2: SIF with pancreatin; for SIF t1/2 / SIF No Pancreatin t1/2: pH 6.8; for SIF No Pancreatin t1/2: SIF without pancreatin
[5] = pediatric epilepsy patients receiving CBD orally; cited from earlier work
[6] = 1 μM, protein 1.25 mg/mL, pH 7.4, 37° C
[7] = 1 μM, protein 1.25 mg/mL, pH 7.4, 37° C, NADPH, UDPGA, PAPS
[8] = 1 μM, microsomal protein 1 mg/mL, pH 7.4, 37° C.

Compound	Teorell-Stenhagen Buffer pH 3.5 t1/2 [1] [h]	Teorell-Stenhagen Buffer pH 4.5 t1/2 [1] [h]	Teorell-Stenhagen Buffer pH 5.5 t1/2 [1] [h]	Teorell-Stenhagen Buffer pH 6.5 t1/2 [1] [h]	Teorell-Stenhagen Buffer pH 7.5 t1/2 [1] [h]	Teorell-Stenhagen Buffer pH 8.5 t1/2 [1] [h]	Human S9 EH (hepatic extraction ratio) [2, 6] [%]	Human S9 CLint [2, 7] [µL/min/mg]	Human S9 t1/2 [2, 7] [h]	half-life for de-etherification in S9 fraction ([2]; hepatic S9 fraction)	HLM CLint [3, 8] [µL/min/mg]	HLM EH (hepatic extraction ratio) [3, 8] [%]	HLM t1/2 [3, 8] [h]	stability in liver microsome extract [3]	Plasma stability Human t1/2 (Plasma Stability Assay) [h]	solubility in phosphate buffered saline (Solubility Assay - PBS)	Solubility (μM) in PBS 7.4 (Solubility Assay - PBS) [µM]	Solubility (μM) in T-S 7.5 (Solubility Assay - PBS) [µM]	SGF t1/2 [4] [h]	SGF No Pepsin t1/2 [4] [h]	also measured
C=C(C)[C@@H]1CCC(C)=C[C@H]1c1c(O)cc(CCCCC)cc1OC [CBD Methyl Ether, CBD methyl ether]	>72	>72	>72	>72	>72	>72	21	1.9	4.77	about 5 hours	8.7	26	1.33	relatively stable	>6.67	good solubility	8.4 (≈ 2.76 µg/mL)	22 (≈ 7.23 µg/mL)	>6.67	>6.67	half-life of de-etherification in buffers at different pH's ([1]; Teorell-Stenhagen buffer pH 3.5-8.5): greater than 72 hours; SIF t1/2 [4]: >6.67 h; SIF No Pancreatin t1/2 [4]: >6.67 h
C=C(C)[C@@H]1CCC(C)=C[C@H]1c1c(O)cc(CCCCC)cc1O [CBD, cannabidiol, reference compound]																					patients showing somnolence [5]: greater than 44%; CBD cyclized to mixture of Δ8-THC and Δ9-THC ([4]; in about 60 minutes, comparison in the SGF/SIF stability study): greater than 85%
C[C@]12CC[C@H]3[C@@H](CCC4=CC(=O)CC[C@@]43C)[C@@H]1CC[C@@H]2O [Testosterone, testosterone, reference compound]							87					73									microsomal CLint at 1 μM ([2]; human, hepatic S9 fraction, 1 μM, protein 1.25 mg/mL, pH 7.4, 37° C, NADPH, UDPGA, PAPS): 47 µL/min/mg; half-life at 1 μM ([2]; human, hepatic S9 fraction, 1 μM, protein 1.25 mg/mL, pH 7.4, 37° C, NADPH, UDPGA, PAPS, read-out: Human S9 t1/2): 0.483 h; half-life ([2]; human, hepatic S9 fraction, read-out: half-life of degradation in S9 fraction): ~0.483 h; microsomal CLint at 1 μM ([3]; human, liver microsomes, 1 μM, microsomal protein 1 mg/mL, pH 7.4, 37° C., read-out: HLM CLint): 69 µL/min/mg; half-life at 1 μM ([3]; human, liver microsomes, 1 μM, microsomal protein 1 mg/mL, pH 7.4, 37° C., read-out: HLM t1/2): 0.167 h
CBD difluoromethyl ether	10	14	11	11	11	8	31	3.2	2.88	about 3 hours	9.0	26	1.28	relatively stable	>6.67	good solubility	7.0	9.7	>6.67	>6.67	SIF t1/2 [4]: >6.67 h; SIF No Pancreatin t1/2 [4]: >6.67 h
